# Test results taken from patent US12510533B2, “Methods for treating multiple myeloma and the use of companion biomarkers for 4-(4-(4-(((2-(2,6-dioxopiperidin-3-yl)-1-oxoisoindolin-4-yl)oxy)methyl)benzyl)piperazin-1-yl)-3-fluorobenzonitrile” (Celgene Corporation, priority 2018, dated 2025).
# Assays:
# H929-1051 [1] = experiment: Apoptosis by Caspase-Glo 3/7 normalized to CellTiter-Glo in H929-1051 cells, dexamethasone alone or with compound; type: cell-based, human; conditions: 72 hours; Compound 2 0.001, 0.01 or 0.1 μM
# Method: Dexamethasone was dispensed at 20 concentrations, using an acoustic dispenser. The plates were sealed and stored at room temperature for the next day. […] Cells were dispensed into the assay plates with a Multidrop dispenser and duplicate plates were made for the assay. Measurement of apoptosis was made at 72 hours post-compound treatment using a Caspase-Glo 3/7 and CellTiter-Glo Assays. The Caspase-Glo 3/7 luminescence was normalized to the CellTiter-Glo luminescence to account for differences in cell number. The fold change of the treated sample was calculated as follows: normalized caspase of treated sample/average of normalized DMSO control.
# [2] = tested on: H929-1051 and OPM2-P10 cells; experiment: Apoptosis induction in H929-1051 and OPM2-P10 multiple myeloma cells; type: cell-based, human; conditions: 15 minute or 6 hour transient exposure
# Method: FIG. 10 illustrates that continuous, but not transient, exposure to Compound 2 induced apoptosis in multiple myeloma cells. Apoptosis induction by Compound 2 treatment in a lenalidomide-resistant MM cell model (H929-1051 [top row] and a pomalidomide-resistant MM cell model OPM2-P10 [bottom row]) is presented.
# The effect of Aiolos and Ikaros degradation on induction of apoptosis was also evaluated. The nearly complete and prolonged substrate suppression observed upon continuous exposure of Compound 2 coincided with apoptosis induction in MM cells (FIG. 10). A continuous single exposure to 0.01 and 0.1 μM Compound 2 led to induction of apoptosis in H929-1051 and OPM2-P10 cells (within 50 to 75 hours) (FIG. 10).
# K562 cells = experiment: Killing of untreated K562 cells by IL-2-activated PBMCs treated with compound (co-culture, Annexin V/PI); type: cell-based; conditions: Homo sapiens, IL-2-activated PBMCs treated 72 hours, read-out: IC50, direct K562 cell killing by treated PBMCs
# Method: Freshly isolated human PBMCs were cultured with recombinant IL-2 at concentration of 20 units/mL for 72 hours. Peripheral blood mononuclear cells were then spun down and re-suspended in fresh RPMI complete medium to 2×10^6 cells/mL. Cells were then treated with DMSO or Compound 2 at the indicated concentrations and incubated for an additional 72 hours. The PBMCs were then washed twice in fresh RPMI complete medium prior to coculture. K562 cells were re-suspended to a cell density of 1×10^6 cells/mL and stained with 1 μM CellTrace CFSE according to manufacturer's instructions. The labeled K562 cells were then seeded into a 96-well round bottom plate at 1×10^5 cells/well. […] Specific target cell lysis by PBMC mediated apoptosis was measured using Annexin V-fluorescein isothiocyanate (FITC) and propidium iodide (PI) according to manufacturer's instructions and samples were run on the FACS Array scan. […] All myeloma cell lines were kept in log phase, and cell density and viability were monitored by trypan blue exclusion using the Vi-CELL XR cell viability analyzer. […] Frozen PBMC donors, were thawed at 37° C. for 2 minutes in RPMI medium with 10% FBS and cell counts and viability were measured on the Vi-CELL® (Beckman Coulter). […] Peripheral blood mononuclear cells were counted and added to the MM cells at a target:effector (T:E) ratio of 1:5. […]
# sBCMA = experiment: Phase 1 study, sBCMA in serum by ELISA; type: in vivo, human; conditions: one subject; with dexamethasone
# Method: This is an open-label, multi-center, international, Phase 1 study to assess the safety, PK/PD and preliminary efficacy of Compound 2 in combination with dexamethasone in subjects with RRMM.
# Serum samples were taken before and during Compound 2 treatment at specified time points. The expression of sBCMA was measured by an ELISA assay.
# Ikaros = Ikaros (Homo sapiens, UniProt Q13422+Q96SW2); experiment: Ikaros degradation in CD4+ T cells; type: cell-based; parameters: The effects of Compound 2 on the degradation of Ikaros in CD4+ and CD8+ T cells; endogenous in cells; host or cells: CD4+ and CD8+ T cells of healthy donors; CD34+ bone marrow cells of healthy donors; CD3+ T cells of multiple myeloma patients; conditions: 24 hours, read-out: Ikaros degradation IC50
# Method: FIG. 22A-FIG. 22C illustrate that Compound 2 induces degradation of Ikaros in CD4+ T cells. […] Data shown are an average from two donors and are represented as MFI normalized to DMSO control.
# The effects of Compound 2 on the degradation of Ikaros in CD4+ and CD8+ T cells over a 72 hour time course were investigated. The ability of Compound 2 to induce effector cytokine release correlated with degradation of Ikaros in CD4+ T cells, a known transcriptional repressor of IL-2 (FIG. 22A-FIG. 22C). […] The ability of Compound 2 to degrade Ikaros was also observed at the 48 and 72 hour time point in both CD4+(FIG. 22B and FIG. 22C) and CD8+ (data not shown) T cell populations. […] Thus, Ikaros and Aiolos can serve as biomarkers of T-cell activation.
# Ikaros and Aiolos = experiment: Immunoblot of Ikaros and Aiolos in H929-1051 cells; type: cell-based, human; conditions: within 4 hours
# Method: FIG. 6A and FIG. 6B illustrate that Compound 2 degraded Ikaros and Aiolos in a concentration dependent manner, which induced apoptosis and cell cycle arrest in pomalidomide-resistant multiple myeloma cells. Shown is immunoblot analysis of pomalidomide-resistant MM cells (H929-1051) incubated with Compound 2 for (FIG. 6A) 4 hours or (FIG. 6B) 72 hours.
# Incubation with concentrations as low as 1 nM of Compound 2 promoted the robust degradation of Ikaros and Aiolos within 4 hours (FIG. 6A).
# H929-1051 [3] = experiment: Tumor cell lysis by anti-CD3-activated, compound-treated PBMCs, co-culture with untreated H929-1051; type: cell-based; conditions: Homo sapiens, PBMC; lenalidomide-resistant H929-1051, untreated; 24-hour co-culture
# Sequence of Ikaros (Q13422 whole entry): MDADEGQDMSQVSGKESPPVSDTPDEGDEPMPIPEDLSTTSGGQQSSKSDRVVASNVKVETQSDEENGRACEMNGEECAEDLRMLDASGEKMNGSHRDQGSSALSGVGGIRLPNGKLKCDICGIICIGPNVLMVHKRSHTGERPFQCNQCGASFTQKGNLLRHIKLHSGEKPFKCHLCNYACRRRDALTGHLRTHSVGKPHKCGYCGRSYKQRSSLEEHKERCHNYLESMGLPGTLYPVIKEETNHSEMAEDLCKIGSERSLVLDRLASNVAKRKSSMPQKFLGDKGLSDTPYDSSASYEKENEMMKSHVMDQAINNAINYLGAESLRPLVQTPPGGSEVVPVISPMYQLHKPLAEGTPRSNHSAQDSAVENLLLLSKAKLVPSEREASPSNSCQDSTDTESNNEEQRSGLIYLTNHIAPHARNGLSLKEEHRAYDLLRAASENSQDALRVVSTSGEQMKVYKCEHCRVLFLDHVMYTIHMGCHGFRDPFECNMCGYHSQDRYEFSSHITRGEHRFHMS
# Sequence of Ikaros (Q16531 2-1140, further chain): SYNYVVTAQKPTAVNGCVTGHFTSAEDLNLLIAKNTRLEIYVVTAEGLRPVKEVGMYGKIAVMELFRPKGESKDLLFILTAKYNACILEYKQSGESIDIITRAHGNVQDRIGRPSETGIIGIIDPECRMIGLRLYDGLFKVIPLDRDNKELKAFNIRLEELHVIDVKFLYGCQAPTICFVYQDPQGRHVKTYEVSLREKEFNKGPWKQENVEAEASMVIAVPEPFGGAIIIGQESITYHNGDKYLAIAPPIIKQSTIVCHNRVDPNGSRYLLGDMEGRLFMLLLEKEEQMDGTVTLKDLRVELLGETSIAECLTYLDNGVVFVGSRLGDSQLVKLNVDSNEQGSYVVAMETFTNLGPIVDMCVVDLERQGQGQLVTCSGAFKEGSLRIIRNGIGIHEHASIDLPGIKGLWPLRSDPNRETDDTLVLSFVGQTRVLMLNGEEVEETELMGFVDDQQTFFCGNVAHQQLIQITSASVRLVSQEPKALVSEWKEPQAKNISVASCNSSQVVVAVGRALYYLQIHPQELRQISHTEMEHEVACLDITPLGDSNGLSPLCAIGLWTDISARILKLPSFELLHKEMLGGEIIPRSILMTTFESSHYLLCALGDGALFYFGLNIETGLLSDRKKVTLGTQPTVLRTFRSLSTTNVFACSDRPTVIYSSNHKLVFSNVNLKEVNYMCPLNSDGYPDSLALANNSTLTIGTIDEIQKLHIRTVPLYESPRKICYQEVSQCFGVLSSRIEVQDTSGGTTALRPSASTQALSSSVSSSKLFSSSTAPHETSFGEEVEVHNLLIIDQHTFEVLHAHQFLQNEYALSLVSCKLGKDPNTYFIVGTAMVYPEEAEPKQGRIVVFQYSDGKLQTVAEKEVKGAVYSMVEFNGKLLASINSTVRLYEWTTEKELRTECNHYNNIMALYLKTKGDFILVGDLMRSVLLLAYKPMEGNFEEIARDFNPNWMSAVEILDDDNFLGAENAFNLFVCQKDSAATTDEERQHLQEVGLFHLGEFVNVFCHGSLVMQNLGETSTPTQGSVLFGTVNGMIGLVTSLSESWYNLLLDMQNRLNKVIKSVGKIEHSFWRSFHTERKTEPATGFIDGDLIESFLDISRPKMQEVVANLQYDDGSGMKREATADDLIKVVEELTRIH
# Sequence of Ikaros (Q96SW2 whole entry): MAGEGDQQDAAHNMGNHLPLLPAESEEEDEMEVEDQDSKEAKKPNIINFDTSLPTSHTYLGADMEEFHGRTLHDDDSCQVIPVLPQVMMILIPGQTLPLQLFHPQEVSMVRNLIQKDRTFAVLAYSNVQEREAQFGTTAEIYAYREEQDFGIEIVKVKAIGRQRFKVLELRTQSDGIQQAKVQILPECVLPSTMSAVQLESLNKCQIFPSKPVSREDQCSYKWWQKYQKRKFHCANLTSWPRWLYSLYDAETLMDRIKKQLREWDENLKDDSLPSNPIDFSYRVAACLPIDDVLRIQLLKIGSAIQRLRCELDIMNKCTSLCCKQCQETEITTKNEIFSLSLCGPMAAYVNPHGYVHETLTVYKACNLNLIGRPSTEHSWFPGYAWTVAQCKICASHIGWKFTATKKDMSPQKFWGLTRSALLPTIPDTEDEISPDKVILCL
smiles,measurement,setting,value
"N#Cc1ccc(N2CCN(Cc3ccc(COc4cccc5c4CN([C@H]4CCC(=O)NC4=O)C5=O)cc3)CC2)c(F)c1 [Compound 2, (S)-4-(4-(4-(((2-(2,6-dioxopiperidin-3-yl)-1-oxoisoindolin-4-yl)oxy)methyl)benzyl)piperazin-1-yl)-3-fluorobenzonitrile]",shift of the onset of dexamethasone activity in the presence of Compound 2,H929-1051 [1],1 log
same,effect of transient exposure on apoptosis,[2],precluded the induction of apoptosis
same,IC50,K562 cells,0.0059 nM
same,decrease in sBCMA from baseline,sBCMA,> 80%
same,DC50,Ikaros,0.3 nM
same,lowest concentration promoting robust degradation of Ikaros and Aiolos,Ikaros and Aiolos,1 nM
same,IC50,H929-1051 [3],0.2 nM
